{"source": "paper PMC9898036", "about": "“VIP152 is a selective CDK9 inhibitor with pre-clinical in vitro and in vivo efficacy in chronic lymphocytic leukemia” (Leukemia, 2022)", "test_in_all_cases": "DiscoverX KINOMEscan kinase profiling (468 assays)", "type_in_all_cases": "binding", "key": {"human kinome [1]": {"biological_target": "human kinome (Homo sapiens, UniProt O15075)", "conditions": "DCAMKL1 (Entrez DCLK1); 100 nM; read-out: Percent Control", "experimental": "(§1) Kinomescan Kinase Profiling Assay\n(§2) Kinomescan Assay was performed at DiscoverRX and described in Fabian, et al. 2005, Nat.\n(§3) Biotechnol. In brief, kinases were produced and subsequently tagged with DNA for qPCR detection.\n(§4) Streptavidin-coated magnetic beads were bound to biotinylated kinase ligands to serve as a solid support.\n(§5) VIP152 was dissolved in DMSO and tested across a 10 serial threefold dilution set and compared to a test\n(§6) compound and a DMSO control.\n(§7) Kinome map was produced via TreeSpot\n(§8) Analysis from DiscoverRX. […]"}, "human kinome [2]": {"biological_target": "human kinome (Homo sapiens, UniProt O15111)", "conditions": "IKK-alpha (Entrez CHUK); 100 nM; read-out: Percent Control", "experimental": "as §1, §2, §3, §4, §5, §6, §7, §8"}, "human kinome [3]": {"biological_target": "human kinome (Homo sapiens, UniProt O43293)", "conditions": "DAPK3; 100 nM; read-out: Percent Control", "experimental": "as §1, §2, §3, §4, §5, §6, §7, §8"}, "human kinome [4]": {"biological_target": "human kinome (Homo sapiens, UniProt O60285)", "conditions": "ARK5 (Entrez NUAK1); 100 nM; read-out: Percent Control", "experimental": "as §1, §2, §3, §4, §5, §6, §7, §8"}, "human kinome [5]": {"biological_target": "human kinome (Homo sapiens, UniProt O75582)", "sequence (O75582 whole entry)": "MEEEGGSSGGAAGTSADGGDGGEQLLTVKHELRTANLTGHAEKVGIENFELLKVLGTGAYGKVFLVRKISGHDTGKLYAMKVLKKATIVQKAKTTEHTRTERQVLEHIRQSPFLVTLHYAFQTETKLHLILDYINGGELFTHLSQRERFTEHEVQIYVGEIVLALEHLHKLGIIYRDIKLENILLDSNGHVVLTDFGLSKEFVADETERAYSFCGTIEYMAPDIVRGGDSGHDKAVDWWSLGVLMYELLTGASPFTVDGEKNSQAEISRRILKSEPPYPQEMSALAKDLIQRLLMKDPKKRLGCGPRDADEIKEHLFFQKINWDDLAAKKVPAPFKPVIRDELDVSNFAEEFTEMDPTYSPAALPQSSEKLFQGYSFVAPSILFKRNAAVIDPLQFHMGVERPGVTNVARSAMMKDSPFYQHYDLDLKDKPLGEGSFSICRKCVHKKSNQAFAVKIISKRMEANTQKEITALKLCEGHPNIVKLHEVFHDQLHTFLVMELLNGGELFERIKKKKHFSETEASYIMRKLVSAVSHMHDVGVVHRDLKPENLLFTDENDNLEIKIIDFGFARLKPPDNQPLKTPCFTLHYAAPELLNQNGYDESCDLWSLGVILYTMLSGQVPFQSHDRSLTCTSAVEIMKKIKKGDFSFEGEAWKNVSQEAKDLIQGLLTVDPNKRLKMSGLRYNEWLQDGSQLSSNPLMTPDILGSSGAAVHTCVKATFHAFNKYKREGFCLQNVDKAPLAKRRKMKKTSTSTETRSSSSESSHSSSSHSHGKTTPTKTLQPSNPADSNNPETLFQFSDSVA", "conditions": "compound concentration 1000 nM, read-out: Percent Control", "experimental": "as §1, §2, §3, §4, §5, §6, §7, §8"}, "human kinome [6]": {"biological_target": "human kinome (Homo sapiens, UniProt O76039)", "sequence (O76039 whole entry)": "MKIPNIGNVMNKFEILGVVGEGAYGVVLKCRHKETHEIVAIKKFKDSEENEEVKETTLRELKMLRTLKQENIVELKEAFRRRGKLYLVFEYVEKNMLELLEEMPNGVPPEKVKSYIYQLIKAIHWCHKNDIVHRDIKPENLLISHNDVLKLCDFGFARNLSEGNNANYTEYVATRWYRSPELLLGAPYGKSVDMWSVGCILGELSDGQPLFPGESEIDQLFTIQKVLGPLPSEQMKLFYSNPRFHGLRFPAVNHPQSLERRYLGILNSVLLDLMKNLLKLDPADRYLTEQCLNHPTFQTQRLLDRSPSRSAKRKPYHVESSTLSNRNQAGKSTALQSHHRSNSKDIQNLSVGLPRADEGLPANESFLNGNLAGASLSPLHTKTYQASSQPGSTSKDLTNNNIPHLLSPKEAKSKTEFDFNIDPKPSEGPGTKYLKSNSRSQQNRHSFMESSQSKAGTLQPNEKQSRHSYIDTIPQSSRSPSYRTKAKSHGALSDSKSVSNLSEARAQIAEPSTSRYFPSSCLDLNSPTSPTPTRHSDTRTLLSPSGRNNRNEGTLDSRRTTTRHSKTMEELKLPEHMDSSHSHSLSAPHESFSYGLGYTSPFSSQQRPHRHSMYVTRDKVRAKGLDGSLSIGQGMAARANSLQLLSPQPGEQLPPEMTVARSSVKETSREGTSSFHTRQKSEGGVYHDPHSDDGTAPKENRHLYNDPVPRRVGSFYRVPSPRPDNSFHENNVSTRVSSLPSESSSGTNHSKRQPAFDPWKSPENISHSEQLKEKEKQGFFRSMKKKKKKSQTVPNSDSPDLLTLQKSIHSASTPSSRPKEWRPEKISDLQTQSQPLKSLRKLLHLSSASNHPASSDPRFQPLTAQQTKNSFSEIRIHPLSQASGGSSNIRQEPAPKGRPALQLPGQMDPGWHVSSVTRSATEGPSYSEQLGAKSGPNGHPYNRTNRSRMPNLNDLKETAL", "conditions": "CDKL5; 100 nM; read-out: Percent Control", "experimental": "as §1, §2, §3, §4, §5, §6, §7, §8"}, "human kinome [7]": {"biological_target": "human kinome (Homo sapiens, UniProt P00533, L861Q)", "conditions": "EGFR(L861Q); 100 nM; read-out: Percent Control", "experimental": "as §1, §2, §3, §4, §5, §6, §7, §8"}, "human kinome [8]": {"biological_target": "human kinome (Homo sapiens, UniProt P07949, V804M)", "conditions": "kinase RET(V804M) (Entrez RET); compound concentration 1000 nM; read-out: Percent Control", "experimental": "as §1, §2, §3, §4, §5, §6, §7, §8"}, "human kinome [9]": {"biological_target": "human kinome (Homo sapiens, UniProt P08922)", "conditions": "kinase ROS1 (Entrez ROS1); compound concentration 1000 nM; read-out: Percent Control", "experimental": "as §1, §2, §3, §4, §5, §6, §7, §8"}, "human kinome [10]": {"biological_target": "human kinome (Homo sapiens, UniProt P16591)", "conditions": "FER; 100 nM; read-out: Percent Control", "experimental": "as §1, §2, §3, §4, §5, §6, §7, §8"}, "human kinome [11]": {"biological_target": "human kinome (Homo sapiens, UniProt P29376)", "conditions": "LTK; 100 nM; read-out: Percent Control", "experimental": "as §1, §2, §3, §4, §5, §6, §7, §8"}, "human kinome [12]": {"biological_target": "human kinome (Homo sapiens, UniProt P36888, N841I)", "conditions": "FLT3(N841I); 100 nM; read-out: Percent Control", "experimental": "as §1, §2, §3, §4, §5, §6, §7, §8"}, "human kinome [13]": {"biological_target": "human kinome (Homo sapiens, UniProt P36896)", "conditions": "ACVR1B; 100 nM; read-out: Percent Control", "experimental": "as §1, §2, §3, §4, §5, §6, §7, §8"}, "human kinome [14]": {"biological_target": "human kinome (Homo sapiens, UniProt P42336, E545K)", "sequence (P42336 whole entry E545K)": "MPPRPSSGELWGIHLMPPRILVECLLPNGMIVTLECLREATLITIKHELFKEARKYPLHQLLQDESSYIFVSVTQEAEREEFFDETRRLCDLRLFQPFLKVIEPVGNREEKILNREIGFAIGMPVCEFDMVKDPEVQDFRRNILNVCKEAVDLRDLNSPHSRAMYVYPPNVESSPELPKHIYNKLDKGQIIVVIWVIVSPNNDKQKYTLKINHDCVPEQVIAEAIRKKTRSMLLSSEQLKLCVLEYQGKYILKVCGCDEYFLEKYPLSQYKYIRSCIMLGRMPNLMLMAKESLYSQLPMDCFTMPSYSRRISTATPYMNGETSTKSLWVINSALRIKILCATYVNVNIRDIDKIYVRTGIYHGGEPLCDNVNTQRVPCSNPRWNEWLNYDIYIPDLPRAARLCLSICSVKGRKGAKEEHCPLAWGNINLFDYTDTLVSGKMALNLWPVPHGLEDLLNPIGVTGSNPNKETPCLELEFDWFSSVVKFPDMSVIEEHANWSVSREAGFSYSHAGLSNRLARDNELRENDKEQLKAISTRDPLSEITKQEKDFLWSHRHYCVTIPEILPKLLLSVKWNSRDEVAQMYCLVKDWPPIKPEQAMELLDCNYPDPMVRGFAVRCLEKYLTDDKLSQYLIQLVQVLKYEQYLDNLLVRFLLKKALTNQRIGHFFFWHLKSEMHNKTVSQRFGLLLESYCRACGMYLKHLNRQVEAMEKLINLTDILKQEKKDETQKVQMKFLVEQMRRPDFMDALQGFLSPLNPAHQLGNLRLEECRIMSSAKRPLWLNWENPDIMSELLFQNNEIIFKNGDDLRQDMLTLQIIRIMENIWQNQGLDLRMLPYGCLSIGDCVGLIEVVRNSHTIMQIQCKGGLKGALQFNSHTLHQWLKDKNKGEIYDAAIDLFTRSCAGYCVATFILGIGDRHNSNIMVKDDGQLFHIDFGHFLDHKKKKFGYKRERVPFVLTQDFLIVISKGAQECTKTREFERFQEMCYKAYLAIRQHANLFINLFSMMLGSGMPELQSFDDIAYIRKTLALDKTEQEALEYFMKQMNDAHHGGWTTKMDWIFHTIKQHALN", "conditions": "read-out: Percent Control", "experimental": "as §1, §2, §3, §4, §5, §6, §7, §8"}, "human kinome [15]": {"biological_target": "human kinome (Homo sapiens, UniProt P42685)", "conditions": "FRK; 100 nM; read-out: Percent Control", "experimental": "as §1, §2, §3, §4, §5, §6, §7, §8"}, "human kinome [16]": {"biological_target": "human kinome (Homo sapiens, UniProt P53671)", "sequence (P53671 whole entry)": "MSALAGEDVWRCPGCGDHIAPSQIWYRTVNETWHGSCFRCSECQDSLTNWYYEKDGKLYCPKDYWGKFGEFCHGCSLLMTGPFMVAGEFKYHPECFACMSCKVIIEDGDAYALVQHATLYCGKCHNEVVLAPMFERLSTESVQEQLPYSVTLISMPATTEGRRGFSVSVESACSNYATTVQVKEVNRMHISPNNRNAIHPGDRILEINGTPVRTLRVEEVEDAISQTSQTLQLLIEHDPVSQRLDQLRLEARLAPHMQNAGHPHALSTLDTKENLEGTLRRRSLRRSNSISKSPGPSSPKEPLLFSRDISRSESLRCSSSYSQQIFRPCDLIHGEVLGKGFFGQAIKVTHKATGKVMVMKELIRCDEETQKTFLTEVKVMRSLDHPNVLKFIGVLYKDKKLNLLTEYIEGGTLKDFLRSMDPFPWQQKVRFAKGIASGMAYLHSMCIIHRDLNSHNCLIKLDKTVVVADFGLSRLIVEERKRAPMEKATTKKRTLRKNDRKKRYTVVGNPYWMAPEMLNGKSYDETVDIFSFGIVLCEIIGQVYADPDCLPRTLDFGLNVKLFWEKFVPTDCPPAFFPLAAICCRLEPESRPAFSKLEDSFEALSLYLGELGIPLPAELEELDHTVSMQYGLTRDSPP", "conditions": "LIMK2; 100 nM; read-out: Percent Control", "experimental": "as §1, §2, §3, §4, §5, §6, §7, §8"}, "human kinome [17]": {"biological_target": "human kinome (Homo sapiens, UniProt Q00536)", "sequence (Q00536 whole entry)": "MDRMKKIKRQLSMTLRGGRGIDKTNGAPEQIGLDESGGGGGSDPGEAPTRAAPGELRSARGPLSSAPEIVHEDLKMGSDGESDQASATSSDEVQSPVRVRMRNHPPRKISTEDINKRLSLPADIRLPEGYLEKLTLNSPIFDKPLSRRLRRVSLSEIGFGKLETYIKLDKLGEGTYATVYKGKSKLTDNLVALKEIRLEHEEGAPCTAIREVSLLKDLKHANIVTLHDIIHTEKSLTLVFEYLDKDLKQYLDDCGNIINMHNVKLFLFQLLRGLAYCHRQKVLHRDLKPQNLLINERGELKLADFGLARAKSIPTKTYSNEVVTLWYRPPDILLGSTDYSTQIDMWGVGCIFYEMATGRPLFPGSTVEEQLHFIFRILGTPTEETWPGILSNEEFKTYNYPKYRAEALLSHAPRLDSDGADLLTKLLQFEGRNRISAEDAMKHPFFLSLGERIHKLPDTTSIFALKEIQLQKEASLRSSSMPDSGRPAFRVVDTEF", "conditions": "read-out: Percent Control", "experimental": "as §1, §2, §3, §4, §5, §6, §7, §8"}, "human kinome [18]": {"biological_target": "human kinome (Homo sapiens, UniProt Q13163)", "sequence (Q13163 whole entry)": "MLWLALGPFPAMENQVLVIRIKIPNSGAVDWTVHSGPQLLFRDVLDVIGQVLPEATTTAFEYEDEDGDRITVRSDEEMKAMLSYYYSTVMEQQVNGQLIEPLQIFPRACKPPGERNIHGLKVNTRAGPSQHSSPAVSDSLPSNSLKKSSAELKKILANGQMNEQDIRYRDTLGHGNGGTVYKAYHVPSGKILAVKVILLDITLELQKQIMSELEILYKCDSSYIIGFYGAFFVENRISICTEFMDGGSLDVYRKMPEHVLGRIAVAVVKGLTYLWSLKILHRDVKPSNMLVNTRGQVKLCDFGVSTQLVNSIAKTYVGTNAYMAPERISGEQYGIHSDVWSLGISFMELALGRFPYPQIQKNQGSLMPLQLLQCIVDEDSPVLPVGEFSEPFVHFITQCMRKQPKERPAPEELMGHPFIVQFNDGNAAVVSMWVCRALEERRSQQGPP", "conditions": "MEK5 (Entrez MAP2K5); 100 nM; read-out: Percent Control", "experimental": "as §1, §2, §3, §4, §5, §6, §7, §8"}, "human kinome [19]": {"biological_target": "human kinome (Homo sapiens, UniProt Q14164)", "conditions": "IKK-epsilon (Entrez IKBKE); 100 nM; read-out: Percent Control", "experimental": "as §1, §2, §3, §4, §5, §6, §7, §8"}, "human kinome [20]": {"biological_target": "human kinome (Homo sapiens, UniProt Q5S007)", "conditions": "LRRK2; 100 nM; read-out: Percent Control", "experimental": "as §1, §2, §3, §4, §5, §6, §7, §8"}, "human kinome [21]": {"biological_target": "human kinome (Homo sapiens, UniProt Q8IVW4)", "conditions": "CDKL3; 100 nM; read-out: Percent Control", "experimental": "as §1, §2, §3, §4, §5, §6, §7, §8"}, "human kinome [22]": {"biological_target": "human kinome (Homo sapiens, UniProt Q8N5S9)", "conditions": "CAMKK1; 100 nM; read-out: Percent Control", "experimental": "as §1, §2, §3, §4, §5, §6, §7, §8"}, "human kinome [23]": {"biological_target": "human kinome (Homo sapiens, UniProt Q92630)", "conditions": "DYRK2; 100 nM; read-out: Percent Control", "experimental": "as §1, §2, §3, §4, §5, §6, §7, §8"}, "human kinome [24]": {"biological_target": "human kinome (Homo sapiens, UniProt Q96NX5)", "conditions": "CAMK1G; 100 nM; read-out: Percent Control", "experimental": "as §1, §2, §3, §4, §5, §6, §7, §8"}, "human kinome [25]": {"biological_target": "human kinome (Homo sapiens, UniProt Q9BYT3)", "conditions": "kinase STK33 (Entrez STK33); compound concentration 1000 nM; read-out: Percent Control", "experimental": "as §1, §2, §3, §4, §5, §6, §7, §8"}, "human kinome [26]": {"biological_target": "human kinome (Homo sapiens, UniProt Q9H093)", "sequence (Q9H093 whole entry)": "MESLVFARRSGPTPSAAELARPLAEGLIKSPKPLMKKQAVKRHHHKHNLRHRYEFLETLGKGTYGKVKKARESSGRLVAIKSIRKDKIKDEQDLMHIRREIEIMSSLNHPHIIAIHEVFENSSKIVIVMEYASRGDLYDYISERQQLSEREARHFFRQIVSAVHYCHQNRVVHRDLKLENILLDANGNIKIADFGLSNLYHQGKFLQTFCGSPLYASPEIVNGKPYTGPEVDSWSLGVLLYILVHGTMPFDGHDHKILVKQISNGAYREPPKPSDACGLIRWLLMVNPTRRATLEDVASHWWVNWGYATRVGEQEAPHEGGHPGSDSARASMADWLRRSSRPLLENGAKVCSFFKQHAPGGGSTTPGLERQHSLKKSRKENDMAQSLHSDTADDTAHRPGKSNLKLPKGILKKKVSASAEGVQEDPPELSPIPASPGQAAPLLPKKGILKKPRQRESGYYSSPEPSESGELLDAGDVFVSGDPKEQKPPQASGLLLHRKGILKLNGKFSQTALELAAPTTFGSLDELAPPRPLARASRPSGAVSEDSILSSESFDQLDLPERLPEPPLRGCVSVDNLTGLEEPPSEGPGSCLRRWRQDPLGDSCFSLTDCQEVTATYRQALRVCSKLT", "conditions": "kinase SNARK (Entrez NUAK2); compound concentration 1000 nM; read-out: Percent Control", "experimental": "as §1, §2, §3, §4, §5, §6, §7, §8"}, "human kinome [27]": {"biological_target": "human kinome (Homo sapiens, UniProt Q9H0K1)", "conditions": "kinase SIK2 (Entrez SIK2); compound concentration 1000 nM; read-out: Percent Control", "experimental": "as §1, §2, §3, §4, §5, §6, §7, §8"}, "human kinome [28]": {"biological_target": "human kinome (Homo sapiens, UniProt Q9H422)", "conditions": "HIPK3; 100 nM; read-out: Percent Control", "experimental": "as §1, §2, §3, §4, §5, §6, §7, §8"}, "human kinome [29]": {"biological_target": "human kinome (Homo sapiens, UniProt Q9P289)", "conditions": "MST4; 100 nM; read-out: Percent Control", "experimental": "as §1, §2, §3, §4, §5, §6, §7, §8"}, "human kinome [30]": {"biological_target": "human kinome (Homo sapiens, UniProt Q9UPZ9)", "conditions": "ICK; 100 nM; read-out: Percent Control", "experimental": "as §1, §2, §3, §4, §5, §6, §7, §8"}}, "note": "Like-named read-outs stand apart in the source and are kept apart here."}
{"molecule": "COc1cc(F)ccc1-c1cc(Nc2cc(CS(C)(=N)=O)ccn2)ncc1F", "note": "(stereo not drawn) [VIP152]", "values": [{"measurement": "remaining binding at 0.1 µM", "setting": "human kinome [1]", "value": 91, "unit": "%"}, {"measurement": "remaining binding at 0.1 µM", "setting": "human kinome [2]", "value": 100, "unit": "%"}, {"measurement": "remaining binding at 0.1 µM", "setting": "human kinome [3]", "value": 100, "unit": "%"}, {"measurement": "remaining binding at 0.1 µM", "setting": "human kinome [4]", "value": 100, "unit": "%"}, {"measurement": "remaining binding at 1 µM", "setting": "human kinome [5]; kinase RPS6KA5(Kin.Dom.1-N-terminal) (Entrez RPS6KA5)", "value": 100, "unit": "%"}, {"measurement": "remaining binding at 1 µM", "setting": "human kinome [5]; kinase RPS6KA5(Kin.Dom.2-C-terminal) (Entrez RPS6KA5)", "value": 100, "unit": "%"}, {"measurement": "remaining binding at 0.1 µM", "setting": "human kinome [6]", "value": 100, "unit": "%"}, {"measurement": "remaining binding at 0.1 µM", "setting": "human kinome [7]", "value": 100, "unit": "%"}, {"measurement": "remaining binding at 1 µM", "setting": "human kinome [8]", "value": 92, "unit": "%"}, {"measurement": "remaining binding at 1 µM", "setting": "human kinome [9]", "value": 80, "unit": "%"}, {"measurement": "remaining binding at 0.1 µM", "setting": "human kinome [10]", "value": 100, "unit": "%"}, {"measurement": "remaining binding at 0.1 µM", "setting": "human kinome [11]", "value": 96, "unit": "%"}, {"measurement": "remaining binding at 0.1 µM", "setting": "human kinome [12]", "value": 66, "unit": "%"}, {"measurement": "remaining binding at 0.1 µM", "setting": "human kinome [13]", "value": 100, "unit": "%"}, {"measurement": "remaining binding at 0.1 µM", "setting": "human kinome [14]; PIK3CA(E545K), 100 nM", "value": 92, "unit": "%"}, {"measurement": "remaining binding at 1 µM", "setting": "human kinome [14]; kinase PIK3CA(E545K) (Entrez PIK3CA), compound concentration 1000 nM", "value": 93, "unit": "%"}, {"measurement": "remaining binding at 0.1 µM", "setting": "human kinome [15]", "value": 100, "unit": "%"}, {"measurement": "remaining binding at 0.1 µM", "setting": "human kinome [16]", "value": 100, "unit": "%"}, {"measurement": "remaining binding at 0.1 µM", "setting": "human kinome [17]; PCTK1 (Entrez CDK16), 100 nM", "value": 83, "unit": "%"}, {"measurement": "remaining binding at 1 µM", "setting": "human kinome [17]; kinase PCTK1 (Entrez CDK16), compound concentration 1000 nM", "value": 24, "unit": "%"}, {"measurement": "remaining binding at 0.1 µM", "setting": "human kinome [18]", "value": 100, "unit": "%"}, {"measurement": "remaining binding at 0.1 µM", "setting": "human kinome [19]", "value": 100, "unit": "%"}, {"measurement": "remaining binding at 0.1 µM", "setting": "human kinome [20]", "value": 100, "unit": "%"}, {"measurement": "remaining binding at 0.1 µM", "setting": "human kinome [21]", "value": 100, "unit": "%"}, {"measurement": "remaining binding at 0.1 µM", "setting": "human kinome [22]", "value": 89, "unit": "%"}, {"measurement": "remaining binding at 0.1 µM", "setting": "human kinome [23]", "value": 99, "unit": "%"}, {"measurement": "remaining binding at 0.1 µM", "setting": "human kinome [24]", "value": 100, "unit": "%"}, {"measurement": "remaining binding at 1 µM", "setting": "human kinome [25]", "value": 84, "unit": "%"}, {"measurement": "remaining binding at 1 µM", "setting": "human kinome [26]", "value": 78, "unit": "%"}, {"measurement": "remaining binding at 1 µM", "setting": "human kinome [27]", "value": 79, "unit": "%"}, {"measurement": "remaining binding at 0.1 µM", "setting": "human kinome [28]", "value": 100, "unit": "%"}, {"measurement": "remaining binding at 0.1 µM", "setting": "human kinome [29]", "value": 100, "unit": "%"}, {"measurement": "remaining binding at 0.1 µM", "setting": "human kinome [30]", "value": 95, "unit": "%"}]}
